Measured values: article PMC8305076, “Comprehensive Evaluation of Biological Effects of Pentathiepins on Various Human Cancer Cell Lines and Insights into Their Mode of Action” (International Journal of Molecular Sciences, 2021)
Where two headings read alike, the source gives them in different places.

How the values were obtained:
bovine erythrocyte GPx1 = biological target: T1, bovine erythrocyte GPx1 (Bos taurus, UniProt P00435); experiment: GPx1 enzyme activity assay (NADPH-coupled, t-BHP substrate); format: biochemical; design: key to GPx1 inhibition: no impact (0); weak impact (+); strong impact (++); conditions: for IC50: n ≥ 3; for GPx1 inhibition: summary grade
T1 construct: the isolated enzyme from bovine erythrocytes; purchased Sigma-Aldrich (Taufkirchen, Germany); host or cells: isolated from bovine erythrocytes
T1 sequence (P00435 1-205): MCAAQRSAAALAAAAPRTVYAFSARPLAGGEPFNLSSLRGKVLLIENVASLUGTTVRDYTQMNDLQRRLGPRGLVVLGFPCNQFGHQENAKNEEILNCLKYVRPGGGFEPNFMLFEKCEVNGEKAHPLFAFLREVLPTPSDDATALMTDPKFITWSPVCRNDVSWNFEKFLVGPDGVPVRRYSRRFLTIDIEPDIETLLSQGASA
Source text: The inhibition of GPx1 by pentathiepins has already been reported by us previously. […] The resulting glutathione disulfide (GSSG) was reduced back to GSH by glutathione reductase (GR), thereby converting NADPH to NADP^+, which can be photometrically monitored at λ = 340 nm. The rate of NADPH consumption was used to quantify GPx1 enzyme activity. Dose-response graphs are presented in Figure 5a, and the corresponding IC50 values in Table 1. Relative IC50 describing the half-maximal inhibition of the enzyme were derived from the inflection point of the sigmoidal shaped graphs. Absolute IC50 was calculated via interpolation of the standard curve resulting in the concentration at which 50% of the GPx1 was inhibited.
The potential of the pentathiepins to inhibit the GPx1 was assessed with an enzymatic assay as described previously. It is based on the catalytic cycle of the enzyme coupled to an NADPH detection reaction. Here, a bovine erythrocyte GPx1 with a sequence similarity of 87% to the human homolog was used for reasons of affordability. The GPx1 was treated with either vehicle (solvent DMF) or the respective pentathiepin, and the reaction started by addition of tert-butylhydroperoxide (t-BHP). For the assay, all solutions were prepared with potassium phosphate buffer (50 mM, pH 7.4, EDTA 1.1 mM, Triton-X 0.01%), except for the inhibitors and t-BHP, which were diluted in DMF or water, respectively. First, 180 µL of a 0.125 U/mL GPx1 solution and 30 µL of a serial dilution of the putative inhibitor dissolved in DMF were added in triplicate to the wells of a UV-transparent 96-well plate. As a negative control, only DMF was appliedat the same dilution as the inhibitor solution.. All reagents including the GPx1 solution were pipetted. Then, 30 µL of a GSH solution (2.5 mM) and 30 µL of a GR/NADPH solution (2 U/mL; 2.0 mM) were added per well. The reaction was started by adding 30 µL of a t-BHP solution (5.0 mM). […] GPx1 activity was indirectly measured by monitoring the decrease of NADPH at λ = 340 nm for 30 min every 15 s at room temperature. The GPx1 activity of the treated samples was related to the solvent treated control and the relative activities analyzed in Prism 7 (GraphPad) via dose–response graphs and the calculation of the inflection point corresponding to the relative IC50 (half-maximal inhibitory concentration). The relative IC50 corresponds to the concentration at which half of the effect of the test compound is achieved. An absolute IC50, where 50% of the enzyme is inhibited, was calculated via interpolation of the sigmoidal graph.

DanG = experiment: cell cycle analysis (PI staining); format: cell-based, human; conditions: IC90, 24 and 48 h (Figure 19a)
Method: (§1) The potent cytotoxicity and the potential to inhibit the proliferation of cancer cells accompanied by DNA damage effects raised the question as to whether cell cycle progression might be affected as a result of treatment with pentathiepins.
(§2) Cells were harvested by trypsinization, collected in 1.5 mL tubes, and washed twice with PBS by centrifuging for 5 min at 500× g and discarding the supernatant after every step. For fixation, 500 µL of ice-cold ethanol (70%) was added dropwise under vortexing with a subsequent incubation on ice for 30 min. Then, the cells were centrifuged for 10 min at 4000 rpm and 4 °C, the supernatant was removed, and the cells were resuspended in 500 µL of PBS containing 25 µg/mL of PI and 100 µg/mL of RNase. The staining solution was incubated for 30 min, and the cell suspension was measured at λEx/Em = 488/655–730 nm using a MACSquant Analyzer 10 (Miltenyi Biotec, Teterow, Germany).

HAP-1.KO.GPx1 = experiment: cell cycle analysis (PI staining); format: cell-based, human; conditions: IC90, 24 h
Method: as §1, §2

HAP-1 = experiment: cell cycle analysis (PI staining); format: cell-based, human; conditions: IC90, 24 h
Method: as §1, §2

seven cancer cell lines = experiment: cell cycle analysis (summary); format: cell-based, human; design: key: no impact (0); weak impact (+); strong impact (++); conditions: summary grade
Method: as §1, §2

[1] = absolute IC50 (interpolation, 50% of GPx1 inhibited), read-out: Abs. IC50 (SD)
[2] = relative IC50 (inflection point of dose-response graph), t-BHP substrate, read-out: Rel. IC50 (CI 95%)
[3] = residual GPx1 activity at highest tested concentration of 12.5 µM

Row | SMILES | IC50 (bovine erythrocyte GPx1; [1]) | IC50 (bovine erythrocyte GPx1; [2]) | remaining activity at 12.5 µM (bovine erythrocyte GPx1; [3]) | GPx1 inhibition (bovine erythrocyte GPx1) | decrease of G0/G1-phase cells (DanG) | increase of cells in G2/M-phase (DanG) | increase of cells in sub G1-phase (DanG) | increase of cells in G2/M-phase (HAP-1.KO.GPx1) | increase of cells in sub G1-phase (HAP-1.KO.GPx1) | increase of cells in G2/M-phase (HAP-1) | increase of cells in sub G1-phase (HAP-1) | G0/G1 arrest (seven cancer cell lines) | G2/M arrest (seven cancer cell lines) | Residual Activity (%) (bovine erythrocyte GPx1; residual GPx1 activity at highest tested concentration of 12.5 µM, 12.5 µM) | cell cycle distribution vs control (DanG) | decrease of the activity of the bovine GPx (bovine erythrocyte GPx1; at 12.5 µM)
1 | CCOc1c2c(c3ccc(C(=O)N(CC)CC)cn13)SSSSS2 [Compound 4, 6-Ethoxy-N,N’-diethyl-[1,2,3,4,5]pentathiepino[6,7-a]indolizine-9-carboxamide] | 750 nM | 600 nM | 27.9% | ++ | roughly 15% | 6% | 8% | ≤ 30% | up to 10% | ≤ 30% | up to 10% | 0 | + | – | – | –
2 | CCOc1c2c(c3cnc4[nH]c(-c5ccc(OC)cc5)cc4n13)SSSSS2 [Compound 1, 11-Ethoxy-2-(4-methoxyphenyl)-3H-[1,2,3,4,5]pentathiepino[6′,7′:3,4]pyrrolo[1,2-a]pyrrolo[2,3-e]pyrazine] | 1490 nM | 920 nM | 16% | ++ | – | – | – | No such effects were detected | – | No such effects were detected | – | + | 0 | 16.4% | caused no differences from a normal cell cycle | –
3 | CCOc1c2c(c3ccc(C(=O)N4CCCCC4)cn13)SSSSS2 [Compound 2, (6-Ethoxy-[1,2,3,4,5]pentathiepino[6,7-a]indolizin-9-yl)(piperidinyl)methanone] | 3250 nM | 2280 nM | 27.5% | + | roughly 15% | 6% | 8% | ≤ 30% | up to 10% | ≤ 30% | up to 10% | 0 | + | – | – | –
4 | CCOc1c2c(c3ccc(C(=O)N4CCOCC4)cn13)SSSSS2 [Compound 3, (6-Ethoxy-[1,2,3,4,5]pentathiepino[6,7-a]indolizin-9-yl)(morpholino)methanone] | 910 nM | 560 nM | 29% | ++ | roughly 15% | 6% | 8% | ≤ 30% | up to 10% | ≤ 30% | up to 10% | 0 | + | – | – | –
5 | CCOc1c2c(c3ccc(C(=O)N4CCN(C(=O)c5ccc(F)cc5)CC4)cn13)SSSSS2 [Compound 5, (6-Ethoxy-[1,2,3,4,5]pentathiepino[6,7-a]indolizin-9-yl)(4-(4-fluorobenzoyl)piperazinyl)methanone] | 1170 nM | 630 nM | 28.7% | ++ | roughly 15% | 6% | 8% | ≤ 30% | up to 10% | ≤ 30% | up to 10% | 0 | + | – | – | –
6 | CCOc1c2c(c3ccc(C(=O)N4CCN(S(=O)(=O)c5ccc(C)cc5)CC4)cn13)SSSSS2 [Compound 6, (6-Ethoxy-[1,2,3,4,5]pentathiepino[6,7-a]indolizin-9-yl)(4-tosylpiperazinyl)methanone] | > 12500 nM | > 12500 nM | 53.3% | 0 | – | – | – | No such effects were detected | – | No such effects were detected | – | + | 0 | – | caused no differences from a normal cell cycle | ≤ 50%
